21 compounds from patent US20230077362A1 (CORTEVA AGRISCIENCE LLC, priority 2019, published 2023) can be followed below.

Assay [1] relates to Cabbage Looper (Trichoplusia ni) ("CL"), second instar larvae. Kind of assay: Bioassay on cabbage looper (CL), 128-well diet tray assay. It counts as in vivo. To be noted: for pest or weed control at 50 µg/cm2: Trichoplusia ni; for CL rating: Table ABC, species CL, C = not tested, D = no activity noticed. The gist of the method:
(§1)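 Each value represents average percent mortality from eight wells. Larvae were kept in clear-covered trays at 25° C. for five to seven days on a 14-hour light, 10-hour dark schedule before scoring.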

The test system of assay [2] is Beet Armyworm (Spodoptera exigua) ("BAW"), second instar larvae. Kind of assay: Bioassay on beet armyworm (BAW), 128-well diet tray assay. Format: in vivo. To be noted: for pest or weed control at 50 µg/cm2: Spodoptera exigua; for BAW rating: Table ABC, species BAW, C = not tested, D = no activity noticed. The gist of the method:
as §1

Where [3] appears, read: read-out: CL (Biological Results, rating).
[4] abbreviates: read-out: BAW (Biological Results, rating).

Where two headings read alike, the source gives them in different places.

Turning to `Cc1ccc(COCC(F)(F)F)c(N2C(=O)CS/C2=N\C(=O)Nc2ccc(-c3cn(-c4ccc(C(F)(F)F)cn4)cn3)cc2)c1` [Compound J521, (Z)-1-(3-(5-Methyl-2-((2,2,2-trifluoroethoxy)methyl)phenyl)-4-oxothiazolidin-2-ylidene)-3-(4-(1-(5-(trifluoromethyl)pyridin-2-yl)-1H-imidazol-4-yl)phenyl)urea], the pest or weed control at 50 µg/cm2 in assay [1] (read-out: CL rating) and in assay [2] (read-out: BAW rating) was 50 to 100% each time.
In the case of `COCc1ccc(N(C)C)cc1N1C(=O)CS/C1=N\C(=O)Nc1ccc(-n2cnc(-c3ccc(OC(F)(F)F)cc3)n2)cc1C` [Compound J444, (Z)-1-(3-(5-(Dimethylamino)-2-(methoxymethyl)phenyl)-4-oxothiazolidin-2-ylidene)-3-(2-methyl-4-(3-(4-(trifluoromethoxy)phenyl)-1H-1,2,4-triazol-1-yl)phenyl)urea], the pest or weed control at 50 µg/cm2 in assay [1] (read-out: CL rating) and in assay [2] (read-out: BAW rating) was 50 to 100% each time.
Turning to `Cc1ccc(Cc2ccc(F)cc2)c(N2C(=O)CS/C2=N\C(=O)Nc2ccc(-c3ncn(-c4ccc(S(F)(F)(F)(F)F)cc4)n3)cc2C#N)c1` [Compound J683, (Z)-1-(2-Cyano-4-(1-(4-(pentafluoro-λ^6-sulfaneyl)phenyl)-1H-1,2,4-triazol-3-yl)phenyl)-3-(3-(2-(4-fluorobenzyl)-5-methylphenyl)-4-oxothiazolidin-2-ylidene)urea], the pest or weed control at 50 µg/cm2 in assay [1] (read-out: CL rating) and in assay [2] (read-out: BAW rating) was 50 to 100% throughout.
Regarding `Cc1ccc(COCC(F)(F)F)c(N2C(=O)CS/C2=N\C(=O)Nc2ccc(-c3ncn(-c4ccc(S(F)(F)(F)(F)F)cc4)n3)cc2C#N)c1` [Compound J569, (Z)-1-(2-Cyano-4-(1-(4-(pentafluoro-λ^6-sulfaneyl)phenyl)-1H-1,2,4-triazol-3-yl)phenyl)-3-(3-(5-methyl-2-((2,2,2-trifluoroethoxy)methyl)phenyl)-4-oxothiazolidin-2-ylidene)urea], the pest or weed control at 50 µg/cm2 in assay [1] (read-out: CL rating) and in assay [2] (read-out: BAW rating) was 50 to 100% each time.
With `Cc1ccc(C(C)C)c(N2C(=O)CS/C2=N\C(=O)Nc2ccc(-c3ncn(-c4ccc(C(F)(F)F)cn4)n3)cc2C)c1` [Compound J284, (Z)-1-(3-(2-Isopropyl-5-methylphenyl)-4-oxothiazolidin-2-ylidene)-3-(2-methyl-4-(1-(5-(trifluoromethyl)pyridin-2-yl)-1H-1,2,4-triazol-3-yl)phenyl)urea], the pest or weed control at 50 µg/cm2 in assay [1] (setting [3]) and in assay [2] (setting [4]) was 50 to 100% in each case.
Regarding `COc1ccc(C(C)C)c(N2C(=O)CS/C2=N\C(=O)Nc2ccc(-c3ncn(-c4ccc(OC(F)(F)C(F)(F)F)cc4)n3)cc2C)c1` [Compound J25, (Z)-1-(3-(2-Isopropyl-5-methoxyphenyl)-4-oxothiazolidin-2-ylidene)-3-(2-methyl-4-(1-(4-(perfluoroethoxy)phenyl)-1H-1,2,4-triazol-3-yl)phenyl)urea], the pest or weed control at 50 µg/cm2 in assay [1] (setting [3]) and in assay [2] (setting [4]) was 50 to 100% throughout.
With `Cc1ccc(OCC(F)(F)F)c(N2C(=O)CS/C2=N\C(=O)Nc2c(F)cc(-c3ncn(-c4ccc(OC(F)(F)F)cc4)n3)cc2F)c1` [Compound J79, (Z)-1-(2,6-Difluoro-4-(1-(4-(trifluoromethoxy)phenyl)-1H-1,2,4-triazol-3-yl)phenyl)-3-(3-(5-methyl-2-(2,2,2-trifluoroethoxy)phenyl)-4-oxothiazolidin-2-ylidene)urea], the pest or weed control at 50 µg/cm2 in assay [1] (setting [3]) and in assay [2] (setting [4]) was 50 to 100% throughout.
As to `Cc1ccc(Cc2cccnc2)c(N2C(=O)CS/C2=N\C(=O)Nc2ccc(-c3ncn(-c4ccc(C(F)(F)F)cc4)n3)cc2F)c1` [Compound J758, (Z)-1-(2-Fluoro-4-(1-(4-(trifluoromethyl)phenyl)-1H-1,2,4-triazol-3-yl)phenyl)-3-(3-(5-methyl-2-(pyridin-3-ylmethyl)phenyl)-4-oxothiazolidin-2-ylidene)urea], the pest or weed control at 50 µg/cm2 in assay [1] (read-out: CL rating) and in assay [2] (read-out: BAW rating) was 50 to 100% in each case.
For the compound `CCOC(C)c1ccc(C)cc1N1C(=O)CS/C1=N\C(=O)Nc1ccc(-c2ncn(-c3ccc(OC(F)(F)F)cc3)n2)cc1OCOC` (stereo not drawn) [Compound J174, (Z)-1-(3-(2-(1-Ethoxyethyl)-5-methylphenyl)-4-oxothiazolidin-2-ylidene)-3-(2-(methoxymethoxy)-4-(1-(4-(trifluoromethoxy)phenyl)-1H-1,2,4-triazol-3-yl)phenyl)urea], the pest or weed control at 50 µg/cm2 in assay [1] (setting [3]) and in assay [2] (setting [4]) was 50 to 100% throughout.
As to `COc1ccc(-n2cnc(-c3ccc(NC(=O)/N=C4\SCC(=O)N4c4cc(C)ccc4C(C)C)c(F)c3)n2)cc1` [Compound J144, (Z)-1-(2-Fluoro-4-(1-(4-methoxyphenyl)-1H-1,2,4-triazol-3-yl)phenyl)-3-(3-(2-isopropyl-5-methylphenyl)-4-oxothiazolidin-2-ylidene)urea], the pest or weed control at 50 µg/cm2 in assay [1] (setting [3]) and in assay [2] (setting [4]) was 50 to 100% throughout.
Take `O=C(/N=C1\SCC(=O)N1c1cc(F)ccc1COCC(F)(F)F)Nc1ccc(-n2cnc(-c3ccc(OC(F)(F)F)cc3)n2)cc1F` [Compound J690, (Z)-1-(3-(5-Fluoro-2-((2,2,2-trifluoroethoxy)methyl)phenyl)-4-oxothiazolidin-2-ylidene)-3-(2-fluoro-4-(3-(4-(trifluoromethoxy)phenyl)-1H-1,2,4-triazol-1-yl)phenyl)urea]: the pest or weed control at 50 µg/cm2 in assay [1] (read-out: CL rating) and in assay [2] (read-out: BAW rating) was 50 to 100% throughout.
In the case of `Cc1ccc(N(C)C)c(N2C(=O)CS/C2=N\C(=O)Nc2ccc(-c3ncn(-c4ccc(OC(F)(F)F)cc4)n3)cc2)c1` [Compound J322, (Z)-1-(3-(2-(dimethylamino)-5-methylphenyl)-4-oxothiazolidin-2-ylidene)-3-(4-(1-(4-(trifluoromethoxy)phenyl)-1H-1,2,4-triazol-3-yl)phenyl)urea], the pest or weed control at 50 µg/cm2 in assay [1] (setting [3]) and in assay [2] (setting [4]) was 50 to 100% throughout.
For `COc1ccc(C(C)C)c(N2C(=O)CS/C2=N\C(=O)Nc2ccc(-c3ncn(-c4ccc(C(F)(F)F)cn4)n3)cc2C)c1` [Compound J292, (Z)-1-(3-(2-Isopropyl-5-methoxyphenyl)-4-oxothiazolidin-2-ylidene)-3-(2-methyl-4-(1-(5-(trifluoromethyl)pyridin-2-yl)-1H-1,2,4-triazol-3-yl)phenyl)urea], the pest or weed control at 50 µg/cm2 in assay [1] (setting [3]) and in assay [2] (setting [4]) was 50 to 100% each time.
For the compound `Cc1ccc(COCC(F)(F)F)c(N2C(=O)CS/C2=N\C(=O)Nc2ccc(-c3ncn(-c4ccc([S+]([O-])C(F)(F)F)cc4)n3)cc2F)c1` (stereo not drawn) [Compound J380, (Z)-1-(2-Fluoro-4-(1-(4-((trifluoromethyl)sulfinyl)phenyl)-1H-1,2,4-triazol-3-yl)phenyl)-3-(3-(5-methyl-2-((2,2,2-trifluoroethoxy)methyl)phenyl)-4-oxothiazolidin-2-ylidene)urea], the pest or weed control at 50 µg/cm2 in assay [1] (read-out: CL rating) and in assay [2] (read-out: BAW rating) was 50 to 100% in each case.
As to `Cc1ccc(COCC(F)F)c(N2C(=O)CS/C2=N\C(=O)Nc2ccc(-n3cnc(-c4ccc(C(F)(F)F)cc4)n3)cc2F)c1` [Compound J701, (Z)-1-(3-(2-((2,2-Difluoroethoxy)methyl)-5-methylphenyl)-4-oxothiazolidin-2-ylidene)-3-(2-fluoro-4-(3-(4-(trifluoromethyl)phenyl)-1H-1,2,4-triazol-1-yl)phenyl)urea], the pest or weed control at 50 µg/cm2 in assay [1] (read-out: CL rating) and in assay [2] (read-out: BAW rating) was 50 to 100% each time.
As for `CCCc1ccc(C)cc1N1C(=O)CS/C1=N\C(=O)Nc1ccc(-c2ncn(-c3ccc(OC(F)(F)F)cn3)n2)cc1F` [Compound J272, (Z)-1-(2-Fluoro-4-(1-(5-(trifluoromethoxy)pyridin-2-yl)-1H-1,2,4-triazol-3-yl)phenyl)-3-(3-(5-methyl-2-propylphenyl)-4-oxothiazolidin-2-ylidene)urea], the pest or weed control at 50 µg/cm2 in assay [1] (setting [3]) and in assay [2] (setting [4]) was 50 to 100% in each case.
Regarding `Cc1cc(COCC(F)(F)F)c(N2C(=O)CS/C2=N\C(=O)Nc2ccc(-c3ncn(-c4ccc(C(F)(F)F)cc4)n3)cc2F)cc1C` [Compound J660], the CL rating entry in assay [1] is given as “A (50-100)”. In addition, the BAW rating entry in assay [2] is given as “A (50-100)”.
Turning to `COc1ccc(C(C)C)c(N2C(=O)CS/C2=N\C(=O)Nc2ccc(-c3ncn(-c4ccc(C(F)(F)F)cc4)n3)cc2C)c1` [Compound J8, (Z)-1-(3-(2-Isopropyl-5-methoxyphenyl)-4-oxothiazolidin-2-ylidene)-3-(2-methyl-4-(1-(4-(trifluoromethyl)phenyl)-1H-1,2,4-triazol-3-yl)phenyl)urea], the pest or weed control at 50 µg/cm2 in assay [1] (setting [3]) and in assay [2] (setting [4]) was 50 to 100% throughout.
With `Cc1ccc(COCC(F)(F)F)c(N2C(=O)CS/C2=N\C(=O)Nc2ccc(-c3ncn(-c4ccc(C(F)(F)F)cc4)n3)cc2)c1` [Compound J332, (Z)-1-(3-(5-Methyl-2-((2,2,2-trifluoroethoxy)methyl)phenyl)-4-oxothiazolidin-2-ylidene)-3-(4-(1-(4-(trifluoromethyl)phenyl)-1H-1,2,4-triazol-3-yl)phenyl)urea], the pest or weed control at 50 µg/cm2 in assay [1] (setting [3]) and in assay [2] (setting [4]) was 50 to 100% throughout.
`Cc1ccc(N2C(=O)CS/C2=N\C(=O)Nc2ccc(-c3ncn(-c4ccc(OC(F)(F)F)cc4)n3)cc2C)c(COCC(F)(F)F)c1` [Compound J448]: the CL rating entry in assay [1] is given as “A (50-100)”. In addition, the BAW rating entry in assay [2] is given as “A (50-100)”.
For `Cc1ccc(COCC(Cl)(Cl)Cl)c(N2C(=O)CS/C2=N\C(=O)Nc2ccc(-c3ncn(-c4ccc(C(F)(F)F)cc4)n3)cc2F)c1` [Compound J550], in assay [1], the CL rating result is given as “A (50-100)”. In addition, in assay [2], the BAW rating entry was “A (50-100)”.
